The test system of assay [1] is RA/Bt2cAMP-treated F9 cells. As to the kind of experiment: DiI-HDL uptake by fluorescence-activated cell (FAC) scanning. The class given is cell-based, mouse. The conditions noted are these: DiI-HDL 1 μg/ml, 37° C., competitors preincubated, apolipoproteins and RAP 1 μM, apoE 0.25 μM, heparin 80 μM, IgGs 200 μg/ml, heparinase I 10 U/ml. Here is the method:
Untreated and RA/Bt2cAMP-treated F9 cells (1-1.5×10^5 cells/cm^2) were grown for 18 hours in serum-free medium (DMEM, ITS, penicillin, and streptomycin). After washing the cell layers with the same serum-free medium, apoE-free DiI-HDL was added to a final concentration of 1 μg/ml and incubated for 1-2 hours at 37° C., 5% CO2. For competition experiments, competitors were added in serum-free medium and incubated for 0.5 hours at 37° C., 5% CO2 prior to the addition of the DiI-HDL. After the incubation, the medium was removed, cell layers washed with serum-free medium and the cells released with a 0.5 mg/ml trypsin-0.53 mM EDTA solution (Mediatech). The cells were then pelleted by centrifugation at 180×g and resuspended in DMEM. Twice more, the cells were pelleted by centrifugation at 180×g, and resuspended in dPBS. The cells were then subjected to FAC sorting on a FACStarplus instrument (Becton Dickinson, San Jose, Calif.).
RA/Bt2cAMP-treated and -untreated F9 cells (1-1.5×10^5 cclls/cm^2) were grown for 18 h in SFM. After washing the cell layers with SFM, DiI-HDL or DIO-LDL was added to a final concentration of 1 μg/ml and incubated for 2 h at 37° C., 5% CO2. For competition experiments, competitors (HDL, HDL2, HDL3 and their corresponding apoE-free forms), LDL, oxidized LDL, VLDL, §-VLDL, Lp(a) ([…]), apoA-I (28.3 μg/ml, 1 μM), apoA-II (I 7.3 μg/ml, 1 μM), apoC-I (6.6 μg/ml, 1 μM), apoC-III (8.8 μg/ml, 1 μM), apoJ (70 μg/ml, 1 μM), ovalbumin (45 μg/ml, 1 μM), RAP (39 μg/ml, 1 μM), apoE (8.5 μg/ml, 0.25 μM), heparin (80 μM, 250 U/ml) or IgGs (200 μg/ml) were added in SFM and incubated for 45 min at 37° C., 5% CO2 prior to the addition of the fluorescent lipoproteins. After the incubation, the medium was removed, cell layers were washed with SFM and the cells were released with trypsin-EDTA-proteinase K. The cells were washed once with DMEM, twice with dPBS, then subjected to FAC scanning on a FACStar Plus instrument (Becton Dickinson, San Jose, Calif.). Plotted data are from gated cells having fluorescence intensity values greater than the autofluorescence values of 99% of unlabeled cells. For some experiments, cell layers were treated with hepaninase I (10 U/ml) for 2 h prior to the addition of the DiI-HDL.

Assay [2] has as its system RA/Bt2cAMP-treated F9 cells. Nature of the assay: Cell layer-associated [35S]-sulfate after heparinase I treatment. The class given is cell-based, mouse. The conditions noted are these: heparinase I 10 U/ml for 2 h; relative to controls.
Assay [3] deals with RA/Bt2cAMP-treated F9 cells. Nature of the assay: [125I]-HDL internalization and degradation assay. The class given is cell-based, mouse. The conditions noted are these: [125I]-HDL 2 μg/ml, 6.5 h at 37° C.; unlabeled HDL 80 μg/ml, RAP 1 μM, chloroquine 50 μM, anti-cubilin IgG 150 μg/ml. Here is the method: HDL internalization and degradation assays were performed in a manner similar to LDL and apolipoprotein J internalization and degradation assays described previously (Stefansson et al., 1995; Kounnas et al., 1995). ApoE-free HDL (HDL3) was labeled with [^125I]-iodine using the iodine monochloride method (Goldstein et al., 1983). RA/Bt2cAMP-treated and -untreated F9 cells were seeded onto gelatin-coated 3.83 cm^2 wells (Corning, Corning, N.Y.) at 1.5-1.75×10^5 cells/well and allowed to grow for 18 h at 37° C., 5% CO2. Prior to the addition of [^125I]-HDL, the cells were washed with serum-free DMEM and incubated in the assay medium (DMEM, 20 mM HEPES, ITS, penicillin/streptomycin, and 1.5% BSA) containing unlabeled HDL3 (80 μg/ml), RAP (1 μM), chloroquine (50 μM) (Sigma) or BSA (10 μM) and incubated for 0.5 hours at 37° C., 5% CO2. The medium was then removed and [^125I]-HDL3 (2 μg/ml) in serum-free medium or in serum-free medium containing unlabeled HDL3 (80 μg/ml), RAP (1 μM), chloroquine (50 μM) or BSA (10 μM) was added and incubated with the cells for 6.5 h at 37° C., 5% CO2. The conditioned culture medium was treated with trichloroacetic acid (final concentration 10%) and centrifuged at 10,000×g for 10 min. The amount of radioactivity present in the supernatant was taken to represent the amount of degraded HDL (Goldstein and Brown, 1974). […] The released cells were pelleted by centrifugation at 1,000×g for 15 min and the amount of radioactivity in the cell pellet measured.
HDL internalization and degradation assays were performed as described previously for LDL and apolipoprotein J (Hammad et al., 1997; Kounnas et al., 1995; Stefansson et al., 1995a). […] The amount of radioactivity in the supernatant was taken to represent the amount of degraded HDL (Goldstein and Brown, 1974). […] The released cells were pelleted by centrifugation at 1,000×g for 15 min and the amount of radioactivity in the cell pellet was measured and taken to represent the amount of internalized HDL.

The subject of assay [4] is visceral yolk sac endoderm. As to the kind of experiment: DiI-HDL uptake by mouse embryo yolk sac (ex utero culture, confocal microscopy). The conditions noted are these: ± S.D.; DiI-HDL 1 μg/ml 1 h; RAP, ovalbumin 1 μM; IgGs 400 μg/ml; p<0.01 vs control. The procedure: Embryos (8-8.5 days post-conception) were removed from timed pregnant ICR mice (Harlan Sprague Dawley, Inc.) so as to leave visceral yolk sac endoderm intact and placed in DMEM. The embryos were then incubated in DMEM containing RAP (1 μM), ovalbumin (1 μM), rabbit anti-cubilin IgG (400 μg/ml) or normal rabbit IgG (400 μg/ml) for 0.5 h at 37° C., 5% CO2. DiI-HDL was added to a final concentration of (1 μg/ml) and incubated for 1 h at 37° C., 5% CO2. The medium was removed and the embryos gently washed with dPBS and fixed with 3% paraformaldehyde for 15 min. The fixed embryos were placed in dPBS, 0.1% azide in a well slide and examined by laser scanning confocal microscopy. The intensity of yolk sac fluorescence in mouse embryos incubated with DiI-HDL in the presence of either RAP, ovalbumin, anti-cubilin IgG or control IgG was evaluated by seven people in a double blinded fashion. The assessments of relative intensity were analyzed by a nonparametric statistical test using RANK and ANOVA procedures (SAS Institute, Inc., Cary, N.C.).

“Also recorded” adds a separate entry of the source.

13 molecules from US6846636B1, “Methods and compositions for HDL holoparticle uptake receptor” (American National Red Cross, priority 1998, dated 2005) can be followed below.

For the molecule apoj: apolipoprotein J from Quidel, in assay [1], the “DiI-HDL uptake in presence of competitor” value is given as “little or no ability to compete”. The same measure, in the same setting: next, Aprotinin [reference compound]: “inability of these ligands to block HDL uptake”; “apoE: Human apoE3 purchased from Calbiochem”: “competed effectively”; apoC-III: Human apolipoprotein: “little or no ability to compete”.

In the case of heparin [reference compound], in assay [1], the “DiI-HDL uptake in presence of competitor” value is “Neither heparin nor heparinase I pretreatment of RA/Bt2cAMP-differentiated F9 cells inhibited DiI-HDL uptake; also recorded: did not block HDL uptake”. Consider “apoC-1: Human apolipoprotein (TPDVSSALDKLKEFGNTLEDKARELISRIKQSELSAKMREWFSETFQKVKEKLKIDS; UniProt P02654 27-83, looked up)”, for which the “DiI-HDL uptake in presence of competitor” value in assay [1] is “little or no ability to compete”. With heparinase I [reference compound], the “DiI-HDL uptake in presence of competitor” value was “Neither heparin nor heparinase I pretreatment of RA/Bt2cAMP-differentiated F9 cells inhibited DiI-HDL uptake” in assay [1] and “did not block HDL uptake” in assay [1] (listed as heparinase). Besides, in assay [2], the “reduction of cell layer-associated [35S]-sulfate” value was 50%. With `CCN(CC)CCCC(C)Nc1ccnc2cc(Cl)ccc12` (centres unmarked) [chloroquine, reference compound], in assay [3], the “degradation of [125I]-HDL” value is listed as “effectively block the degradation”. For the molecule ApoE2: apolipoprotein component of HDL, in assay [1], the “DiI-HDL uptake in presence of competitor” value is recorded as “inhibit HDL uptake”. Consider “ApoAII: Human apolipoprotein, major apolipoprotein component of HDL”, for which the entries for the “DiI-HDL uptake in presence of competitor” value in assay [1] and in assay [1] (listed as apoA-E) were “inhibit HDL uptake” and “competed effectively”, respectively. Take Fucoidan [reference compound]: the “DiI-HDL uptake in presence of competitor” value in assay [1] is “inability of these ligands to block HDL uptake”.

As to “apoA-I: Human apolipoprotein, major apolipoprotein component of HDL”, the results for the “DiI-HDL uptake in presence of competitor” value in assay [1] and in assay [1] (listed as ApoAI) were “competed effectively” and “inhibit HDL uptake”, respectively.

B1: ovalbumin: control protein (protein, UniProt P01012 2-386, looked up)
Ovalbumin: GSIGAASMEFCFDVFKELKVHHANENIFYCPIAIMSALAMVYLGAKDSTRTQINKVVRFDKLPGFGDSIEAQCGTSVNVHSSLRDILNQITKPNDVYSFSLASRLYAEERYPILPEYLQCVKELYRGGLEPINFQTAADQARELINSWVESQTNGIIRNVLQPSSVDSQTAMVLVNAIVFKGLWEKAFKDEDTQAMPFRVTEQESKPVQMMYQIGLFRVASMASEKMKILELPFASGTMSMLVLLPDEVSGLEQLESIINFEKLTEWTSSNVMEERKIKVYLPRMKMEEKYNLTSVLMAMGITDVFSSSANLSGISSAESLKISQAVHAAHAEINEAGREVVGSAEAGVDAASVSEEFRADHPFLFCIKHIATNAVLFFGRCVSP
Consider B1, for which the “fluorescence intensity RANK score of DiI-HDL incorporation into extraembryonic endoderm” value in assay [4] was 4.16±0.15.
